pKi: −log10 of the molar value.
Assays:
[1] = molecular target: Sigma non-opioid intracellular receptor 1 (Cavia porcellus) (UniProt Q60492); assay: Sigma-1 binding assay was done in guinea pig membranes by labeling the binding site with [3H](+)-pentazocine
[2] = Sigma-1 binding assay was done in guinea pig membranes by labeling the binding site with [3H](+)-pentazocine.
[3] = molecular target: Vesicular acetylcholine transporter (Torpedo); assay: Binding to vesicular acetylcholine transporter of torpedo synaptic vesicles

Sigma non-opioid intracellular receptor 1 (Cavia porcellus), sequence (Q60492 whole entry, looked up): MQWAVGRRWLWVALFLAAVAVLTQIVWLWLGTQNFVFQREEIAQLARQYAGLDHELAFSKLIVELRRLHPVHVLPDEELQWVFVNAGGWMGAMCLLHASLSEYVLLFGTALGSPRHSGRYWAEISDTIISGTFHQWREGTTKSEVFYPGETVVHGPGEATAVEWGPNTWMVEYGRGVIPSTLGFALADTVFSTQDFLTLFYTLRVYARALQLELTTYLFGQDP

Row | SMILES | pKi [1] | pKi [2] | pKi [3]
1 | O=C(CCCN1C2CCC1CC(c1ccccc1)C2)c1ccc(F)cc1 (stereo not given) | 7.47 | – | –
2 | OC(CN1C2CCC1CC(c1ccccc1)C2)c1c(Cl)cccc1Cl (stereo not given) [1-(2,6-Dichloro-phenyl)-2-(3-phenyl-8-aza-bicyclo[3.2.1]oct-8-yl)-ethanol] | 6.52 | – | –
3 | OC(CN1C2CCC1CC(c1ccccc1)C2)c1ccccc1Br (stereo not given) [1-(2-Bromo-phenyl)-2-(3-phenyl-8-aza-bicyclo[3.2.1]oct-8-yl)-ethanol] | – | 7.02 | 6.89
4 | OC(CN1C2CCC1CC(c1ccccc1)C2)c1ccc(Cl)c(Cl)c1 (stereo not given) [1-(3,4-Dichloro-phenyl)-2-(3-phenyl-8-aza-bicyclo[3.2.1]oct-8-yl)-ethanol] | 6.60 | – | 7.22
5 | OC(CN1C2CCC1CC(c1ccccc1)C2)c1cccc(Br)c1 (stereo not given) [1-(3-Bromo-phenyl)-2-(3-phenyl-8-aza-bicyclo[3.2.1]oct-8-yl)-ethanol] | 6.93 | – | –
6 | CN1CC2(CCN([C@@H]3CN(Cc4cccc(I)c4)CC[C@H]3O)CC2)c2ccccc21 [1-(3-Iodobenzyl)-3-[1-methylspiro[2,3-dihydro-1H-indole-3,4'-(hexahydropyridine)]-1-yl]-(3R,4R)-hexahydro-4-pyridinol] | 6.91 | – | 7.77
7 | O[C@@H]1CCN(Cc2cccc(I)c2)C[C@H]1N1CCC2(CCc3ccccc32)CC1 [1-(3-iodobenzyl)-3-spiro[2,3-dihydro-1H-indene-1,4'-(hexahydropyridine)]-1-yl-(3R,4R)-hexahydro-4-pyridinol] | 6.55 | – | –
8 | OC(CN1C2CCC1CC(c1ccccc1)C2)c1ccc(Br)cc1 (stereo not given) [1-(4-Bromo-phenyl)-2-(3-phenyl-8-aza-bicyclo[3.2.1]oct-8-yl)-ethanol] | 7.76 | – | 6.84
9 | OC(CN1CCC(c2ccccc2)CC1)c1ccc(Br)cc1 (stereo not given) [1-(4-Bromo-phenyl)-2-(4-phenyl-piperidin-1-yl)-ethanol] | – | – | 7.52
10 | OC(Cc1ccc(Br)cc1)CN1C2CCC1CC(c1ccccc1)C2 (stereo not given) [1-(4-Bromo-phenyl)-3-(3-phenyl-8-aza-bicyclo[3.2.1]oct-8-yl)-propan-2-ol] | 7.51 | – | –
11 | O=C(CN1C2CCC1CC(c1ccccc1)C2)c1ccc(F)cc1 (stereo not given) [1-(4-Fluoro-phenyl)-2-(3-phenyl-8-aza-bicyclo[3.2.1]oct-8-yl)-ethanone] | 6.55 | – | 5.47
12 | OC(CCCN1C2CCC1CC(c1ccccc1)C2)c1ccc(F)cc1 (stereo not given) [1-(4-Fluoro-phenyl)-4-(3-phenyl-8-aza-bicyclo[3.2.1]oct-8-yl)-butan-1-ol] | – | – | 6.42
13 | O[C@@H]1CCN(Cc2ccc(F)cc2)C[C@H]1N1CCC2(CCc3ccccc32)CC1 [1-(4-fluorobenzyl)-3-spiro[2,3-dihydro-1H-indene-1,4'-(hexahydropyridine)]-1-yl-(3R,4R)-hexahydro-4-pyridinol] | 7.60 | – | 9.44
14 | CN1CC2(CCN(CCCC(=O)c3ccc(F)cc3)CC2)c2ccccc21 [1-(4-fluorophenyl)-4-[1-methylspiro[2,3-dihydro-1H-indole-3,4'-(hexahydropyridine)]-1-yl]-1-butanone] | 6.96 | – | –
15 | O=C(CCCN1CCC2(CCc3ccccc32)CC1)c1ccc(F)cc1 [1-(4-fluorophenyl)-4-spiro[2,3-dihydro-1H-indene-1,4'-(hexahydropyridine)]-1-yl-1-butanone] | 8.74 | – | –
16 | OC(CN1C2CCC1CC(c1ccccc1)C2)c1ccccc1 (stereo not given) [1-Phenyl-2-(3-phenyl-8-aza-bicyclo[3.2.1]oct-8-yl)-ethanol] | – | – | 6.32
17 | O[C@@H]1Cc2ccccc2C[C@H]1N1CCC2(CCc3ccccc32)CC1 [3-spiro[2,3-dihydro-1H-indene-1,4'-(hexahydropyridine)]-1-yl-(2R,3R)-1,2,3,4-tetrahydro-2-naphthalenol] | – | – | 9.44
18 | CN1CC2(CCN(C[C@H](O)c3cccc(Br)c3)CC2)c2ccccc21 [(1R)-1-(3-bromophenyl)-2-(1-methyl-1,2-dihydro-1'H-spiro[indole-3,4'-piperidin]-1'-yl)ethanol] | 6.29 | – | 6.74
19 | O[C@@H](CN1CCC2(CCc3ccccc32)CC1)c1cccc(Br)c1 [(1R)-1-(3-bromophenyl)-2-(2,3-dihydro-1'H-spiro[indene-1,4'-piperidin]-1'-yl)ethanol] | 6.97 | – | 6.22
20 | CN1CC2(CCN([C@@H]3CCCC[C@H]3O)CC2)c2ccccc21 [(1R,2R)-2-(1-methyl-1,2-dihydro-1'H-spiro[indole-3,4'-piperidin]-1'-yl)cyclohexanol] | 6.54 | – | 7.13
21 | O[C@@H]1CCCC[C@H]1N1CCC2(CCc3ccccc32)CC1 [(1R,2R)-2-(2,3-dihydro-1'H-spiro[indene-1,4'-piperidin]-1'-yl)cyclohexanol] | 7.68 | – | 8.12
22 | O[C@H]1CCCC[C@@H]1N1C2CCC1CC(c1ccccc1)C2 (stereo partly drawn) [(1S,2S)-2-(3-Phenyl-8-aza-bicyclo[3.2.1]oct-8-yl)-cyclohexanol] | 6.42 | – | –
23 | CN1CC2(CCN(C[C@H](O)Cc3ccc(Br)cc3)CC2)c2ccccc21 [(2R)-1-(4-bromophenyl)-3-{1-methyl-1,2-dihydrospiro[indole-3,4'-piperidine]-1'-yl}propan-2-ol] | 6.72 | – | 6.38
24 | O[C@H](Cc1ccc(Br)cc1)CN1CCC2(CCc3ccccc32)CC1 [(2R)-1-(4-bromophenyl)-3-{2,3-dihydrospiro[indene-1,4'-piperidine]-1'-yl}propan-2-ol] | – | – | 7.07
25 | O[C@H]1Cc2ccccc2C[C@@H]1N1C2CCC1CC(c1ccccc1)C2 (stereo partly drawn) [(2S,3S)-3-(3-Phenyl-8-aza-bicyclo[3.2.1]oct-8-yl)-1,2,3,4-tetrahydro-naphthalen-2-ol] | 6.76 | – | 8.07
26 | O[C@H]1CCN(Cc2cccc(I)c2)C[C@@H]1N1C2CCC1CC(c1ccccc1)C2 (stereo partly drawn) [(3S,4S)-1-(3-Iodo-benzyl)-3-(3-phenyl-8-aza-bicyclo[3.2.1]oct-8-yl)-piperidin-4-ol] | 6.71 | – | –
27 | O[C@H]1CCN(Cc2ccc(F)cc2)C[C@@H]1N1C2CCC1CC(c1ccccc1)C2 (stereo partly drawn) [(3S,4S)-1-(4-Fluoro-benzyl)-3-(3-phenyl-8-aza-bicyclo[3.2.1]oct-8-yl)-piperidin-4-ol] | 6.62 | – | 6.49
